Reference: PubChem BioAssay (NCI)
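Protocol summary: plate cells (96-well), add compound at 5 concentrations, incubate 48 h, interpolate endpoints linearly. TGI: total growth inhibition.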

What was measured:
Experiment in all cases: inhibition of tumour cell growth, NCI panel, 48 h
786-0 renal = test system: 786-0 renal
A498 renal = test system: A498 renal
A549 NSCLC = test system: A549 NSCLC
ACHN renal = test system: ACHN renal
CAKI-1 renal = test system: CAKI-1 renal
CCRF-CEM leukemia = test system: CCRF-CEM leukemia
COLO 205 colon = test system: COLO 205 colon
DLD-1 colon = test system: DLD-1 colon
DMS 114 small cell lung = test system: DMS 114 small cell lung
DMS 273 small cell lung = test system: DMS 273 small cell lung
EKVX NSCLC = test system: EKVX NSCLC
HCC-2998 colon = test system: HCC-2998 colon
HCT-116 colon = test system: HCT-116 colon
HCT-15 colon = test system: HCT-15 colon
HL-60(TB) leukemia = test system: HL-60(TB) leukemia
HOP-18 NSCLC = test system: HOP-18 NSCLC
HOP-62 NSCLC = test system: HOP-62 NSCLC
HOP-92 NSCLC = test system: HOP-92 NSCLC
HT29 colon = test system: HT29 colon
IGROV1 ovarian = test system: IGROV1 ovarian
K-562 leukemia = test system: K-562 leukemia
KM12 colon = test system: KM12 colon
KM20L2 colon = test system: KM20L2 colon
LOX IMVI melanoma = test system: LOX IMVI melanoma
LXFL 529 NSCLC = test system: LXFL 529 NSCLC
M14 melanoma = test system: M14 melanoma
M19-MEL melanoma = test system: M19-MEL melanoma
MALME-3M melanoma = test system: MALME-3M melanoma
MOLT-4 leukemia = test system: MOLT-4 leukemia
NCI-H226 lung = test system: NCI-H226 lung
NCI-H23 lung = test system: NCI-H23 lung
NCI-H460 lung = test system: NCI-H460 lung
NCI-H522 lung = test system: NCI-H522 lung
OVCAR-3 ovarian = test system: OVCAR-3 ovarian
OVCAR-4 ovarian = test system: OVCAR-4 ovarian
OVCAR-5 ovarian = test system: OVCAR-5 ovarian
OVCAR-8 ovarian = test system: OVCAR-8 ovarian
RPMI-8226 leukemia = test system: RPMI-8226 leukemia
RXF 393 renal = test system: RXF 393 renal
RXF-631 renal = test system: RXF-631 renal
SF-268 CNS = test system: SF-268 CNS
SF-295 CNS = test system: SF-295 CNS
SF-539 CNS = test system: SF-539 CNS
SK-MEL-2 melanoma = test system: SK-MEL-2 melanoma
SK-MEL-28 melanoma = test system: SK-MEL-28 melanoma
SK-MEL-5 melanoma = test system: SK-MEL-5 melanoma
SK-OV-3 ovarian = test system: SK-OV-3 ovarian
SN12C renal = test system: SN12C renal
SNB-19 CNS = test system: SNB-19 CNS
SNB-75 CNS = test system: SNB-75 CNS
SNB-78 CNS = test system: SNB-78 CNS
SW-620 colon = test system: SW-620 colon
TK-10 renal = test system: TK-10 renal
U251 CNS = test system: U251 CNS
UACC-257 melanoma = test system: UACC-257 melanoma
UACC-62 melanoma = test system: UACC-62 melanoma
UO-31 renal = test system: UO-31 renal
XF 498 CNS = test system: XF 498 CNS
SR leukemia = test system: SR leukemia

With CC(=O)Nc1ccccc1S(=O)c1ccccc1 (stereo not drawn) the TGI (786-0 renal) was greater than 100 µM, the TGI (A498 renal) was greater than 100 µM and the TGI (A549 NSCLC) was greater than 100 µM. It also gave a TGI (ACHN renal) greater than 100 µM, a TGI (CAKI-1 renal) greater than 100 µM and a TGI (CCRF-CEM leukemia) greater than 100 µM. The TGI (COLO 205 colon) was greater than 100 µM, the TGI (DLD-1 colon) was greater than 100 µM and the TGI (DMS 114 small cell lung) was greater than 100 µM. The TGI (DMS 273 small cell lung) was greater than 100 µM, the TGI (EKVX NSCLC) was greater than 100 µM and the TGI (HCC-2998 colon) was greater than 100 µM. It also gave a TGI (HCT-116 colon) greater than 100 µM, a TGI (HCT-15 colon) greater than 100 µM and a TGI (HL-60(TB) leukemia) greater than 100 µM. For the same molecule, the TGI (HOP-18 NSCLC) was greater than 100 µM, the TGI (HOP-62 NSCLC) was greater than 100 µM and the TGI (HOP-92 NSCLC) was greater than 100 µM. It also gave a TGI (HT29 colon) greater than 100 µM, a TGI (IGROV1 ovarian) greater than 100 µM and a TGI (K-562 leukemia) greater than 100 µM. The TGI (KM12 colon) was greater than 100 µM, the TGI (KM20L2 colon) was greater than 100 µM and the TGI (LOX IMVI melanoma) was greater than 100 µM. It also gave a TGI (LXFL 529 NSCLC) greater than 100 µM, a TGI (M14 melanoma) greater than 100 µM and a TGI (M19-MEL melanoma) greater than 100 µM. It also gave a TGI (MALME-3M melanoma) greater than 100 µM, a TGI (MOLT-4 leukemia) greater than 100 µM and a TGI (NCI-H226 lung) greater than 100 µM. It also gave a TGI (NCI-H23 lung) greater than 100 µM, a TGI (NCI-H460 lung) greater than 100 µM and a TGI (NCI-H522 lung) greater than 100 µM. For the same molecule, the TGI (OVCAR-3 ovarian) was greater than 100 µM, the TGI (OVCAR-4 ovarian) was greater than 100 µM and the TGI (OVCAR-5 ovarian) was greater than 100 µM. The TGI (OVCAR-8 ovarian) was greater than 100 µM, the TGI (RPMI-8226 leukemia) was greater than 100 µM and the TGI (RXF 393 renal) was greater than 100 µM. It also gave a TGI (RXF-631 renal) greater than 100 µM, a TGI (SF-268 CNS) greater than 100 µM and a TGI (SF-295 CNS) greater than 100 µM. The TGI (SF-539 CNS) was greater than 100 µM, the TGI (SK-MEL-2 melanoma) was greater than 100 µM and the TGI (SK-MEL-28 melanoma) was greater than 100 µM. For the same molecule, the TGI (SK-MEL-5 melanoma) was greater than 100 µM, the TGI (SK-OV-3 ovarian) was greater than 100 µM and the TGI (SN12C renal) was greater than 100 µM. For the same molecule, the TGI (SNB-19 CNS) was greater than 100 µM, the TGI (SNB-75 CNS) was greater than 100 µM and the TGI (SNB-78 CNS) was greater than 100 µM. For the same molecule, the TGI (SW-620 colon) was greater than 100 µM, the TGI (TK-10 renal) was greater than 100 µM and the TGI (U251 CNS) was greater than 100 µM. It also gave a TGI (UACC-257 melanoma) greater than 100 µM, a TGI (UACC-62 melanoma) greater than 100 µM and a TGI (UO-31 renal) greater than 100 µM. The TGI (XF 498 CNS) was greater than 100 µM.
Molecule C=C1CC(CC(=O)C(C)CC2CC(=C)C(=O)O2)OC1=O (stereo not drawn) has a TGI (786-0 renal) of 43.3 µM, a TGI (A498 renal) greater than 100 µM and a TGI (A549 NSCLC) greater than 100 µM. The TGI (ACHN renal) was 35.1 µM, the TGI (CCRF-CEM leukemia) was 26.8 µM and the TGI (COLO 205 colon) was 27.1 µM. For the same molecule, the TGI (DLD-1 colon) was 30.4 µM, the TGI (DMS 114 small cell lung) was 39 µM and the TGI (DMS 273 small cell lung) was 57.5 µM. The TGI (EKVX NSCLC) was greater than 100 µM, the TGI (HCC-2998 colon) was greater than 100 µM and the TGI (HCT-116 colon) was 24.6 µM. The TGI (HCT-15 colon) was 36.7 µM, the TGI (HL-60(TB) leukemia) was 33.6 µM and the TGI (HOP-18 NSCLC) was 47.3 µM. It also gave a TGI (HOP-62 NSCLC) greater than 100 µM, a TGI (HOP-92 NSCLC) of 32.1 µM and a TGI (HT29 colon) of 63.2 µM. For the same molecule, the TGI (IGROV1 ovarian) was greater than 100 µM, the TGI (K-562 leukemia) was 89.6 µM and the TGI (KM12 colon) was 22.6 µM. For the same molecule, the TGI (KM20L2 colon) was greater than 100 µM, the TGI (LOX IMVI melanoma) was 29.2 µM and the TGI (LXFL 529 NSCLC) was 27.8 µM. It also gave a TGI (M14 melanoma) of 30 µM, a TGI (M19-MEL melanoma) of 30.3 µM and a TGI (MALME-3M melanoma) of 28.4 µM. For the same molecule, the TGI (MOLT-4 leukemia) was 29.7 µM, the TGI (NCI-H23 lung) was 35.8 µM and the TGI (NCI-H460 lung) was greater than 100 µM. For the same molecule, the TGI (OVCAR-3 ovarian) was 37 µM, the TGI (OVCAR-4 ovarian) was 30.5 µM and the TGI (OVCAR-5 ovarian) was greater than 100 µM. The TGI (OVCAR-8 ovarian) was greater than 100 µM, the TGI (RXF 393 renal) was 37.9 µM and the TGI (RXF-631 renal) was greater than 100 µM. It also gave a TGI (SF-268 CNS) of 48.6 µM, a TGI (SF-295 CNS) greater than 100 µM and a TGI (SF-539 CNS) of 37.7 µM. The TGI (SK-MEL-2 melanoma) was 25.3 µM, the TGI (SK-MEL-28 melanoma) was 30.4 µM and the TGI (SK-MEL-5 melanoma) was greater than 100 µM. It also gave a TGI (SK-OV-3 ovarian) greater than 100 µM, a TGI (SN12C renal) of 34.1 µM and a TGI (SNB-19 CNS) greater than 100 µM. It also gave a TGI (SNB-75 CNS) greater than 100 µM, a TGI (SNB-78 CNS) of 49.7 µM and a TGI (SR leukemia) of 24.1 µM. The TGI (SW-620 colon) was 24.2 µM, the TGI (TK-10 renal) was 33.9 µM and the TGI (U251 CNS) was greater than 100 µM. For the same molecule, the TGI (UACC-257 melanoma) was 30.7 µM, the TGI (UACC-62 melanoma) was 30.1 µM and the TGI (UO-31 renal) was greater than 100 µM. The TGI (XF 498 CNS) was 43.3 µM.
CCOc1ccccc1NC(=O)C(=O)c1c(O)c2ccc(O)cc2oc1=O gave a TGI (786-0 renal) greater than 100 µM, a TGI (A498 renal) greater than 100 µM and a TGI (A549 NSCLC) greater than 100 µM. The TGI (ACHN renal) was greater than 100 µM, the TGI (CAKI-1 renal) was greater than 100 µM and the TGI (CCRF-CEM leukemia) was greater than 100 µM. The TGI (COLO 205 colon) was greater than 100 µM, the TGI (DLD-1 colon) was greater than 100 µM and the TGI (DMS 273 small cell lung) was greater than 100 µM. For the same molecule, the TGI (EKVX NSCLC) was greater than 100 µM, the TGI (HCC-2998 colon) was greater than 100 µM and the TGI (HCT-116 colon) was greater than 100 µM. It also gave a TGI (HCT-15 colon) greater than 100 µM, a TGI (HL-60(TB) leukemia) greater than 100 µM and a TGI (HOP-18 NSCLC) greater than 100 µM. The TGI (HOP-62 NSCLC) was greater than 100 µM, the TGI (HT29 colon) was greater than 100 µM and the TGI (IGROV1 ovarian) was greater than 100 µM. The TGI (K-562 leukemia) was greater than 100 µM, the TGI (KM12 colon) was greater than 100 µM and the TGI (KM20L2 colon) was greater than 100 µM. The TGI (LOX IMVI melanoma) was greater than 100 µM, the TGI (LXFL 529 NSCLC) was greater than 100 µM and the TGI (M14 melanoma) was greater than 100 µM. It also gave a TGI (M19-MEL melanoma) greater than 100 µM, a TGI (MALME-3M melanoma) greater than 100 µM and a TGI (MOLT-4 leukemia) greater than 100 µM. The TGI (NCI-H226 lung) was greater than 100 µM, the TGI (NCI-H23 lung) was greater than 100 µM and the TGI (NCI-H460 lung) was greater than 100 µM. For the same molecule, the TGI (NCI-H522 lung) was greater than 100 µM, the TGI (OVCAR-3 ovarian) was greater than 100 µM and the TGI (OVCAR-4 ovarian) was greater than 100 µM. It also gave a TGI (OVCAR-5 ovarian) greater than 100 µM, a TGI (OVCAR-8 ovarian) greater than 100 µM and a TGI (RXF 393 renal) greater than 100 µM. The TGI (RXF-631 renal) was greater than 100 µM, the TGI (SF-268 CNS) was greater than 100 µM and the TGI (SF-295 CNS) was greater than 100 µM. For the same molecule, the TGI (SF-539 CNS) was greater than 100 µM, the TGI (SK-MEL-2 melanoma) was greater than 100 µM and the TGI (SK-MEL-28 melanoma) was greater than 100 µM. For the same molecule, the TGI (SK-MEL-5 melanoma) was greater than 100 µM, the TGI (SK-OV-3 ovarian) was greater than 100 µM and the TGI (SN12C renal) was greater than 100 µM. The TGI (SNB-19 CNS) was greater than 100 µM, the TGI (SNB-75 CNS) was greater than 100 µM and the TGI (SNB-78 CNS) was greater than 100 µM. For the same molecule, the TGI (SR leukemia) was greater than 100 µM, the TGI (SW-620 colon) was greater than 100 µM and the TGI (TK-10 renal) was greater than 100 µM. For the same molecule, the TGI (U251 CNS) was greater than 100 µM, the TGI (UACC-257 melanoma) was greater than 100 µM and the TGI (UACC-62 melanoma) was greater than 100 µM. The TGI (UO-31 renal) was greater than 100 µM.
